melting point [°C]	SMILES
124 to 126	CCC(CC)Nc1cc(C)nc2c1CCC(=O)N2c1c(C)cc(C)cc1C [Example 12, 5-(1-Ethyl-propylamino)-7-methyl-1-(2,4,6-trimethyl-phenyl)-3,4-dihydro-1H-[1,8]naphthyridin-2-one]
125 to 127	CCC(CC)Oc1cc(C)nc2c1c(Cl)nc(=O)n2-c1c(C)cc(C)cc1C [Example 17, 4-Chloro-5-(1-ethyl-propoxy)-7-methyl-1-(2,4,6-trimethyl-phenyl)-1H-pyrido[2,3-d]pyrimidin-2-one]
105 to 107	CCC(CC)Oc1cc(C)nc2c1c(=O)[nH]c(=O)n2-c1c(C)cc(C)cc1C [Example 18, 5-(1-Ethyl-propoxy)-7-methyl-1-(2,4,6-trimethyl-phenyl)-1H-pyrido[2,3-d]pyrimidine-2,4-dione]
